Columns and labels:
[1] = test system: Pseudomonas aeruginosa strain H1001 fliC::luxCDABE; experiment: Luminescence-based assay for the non-cleaved (bound) peptides on cellulose membranes; assay type: cell-based; settings: for Luminescence at the given time in minutes: 0 / Luminescence at the given time in minutes: 20 / Luminescence at the given time in minutes: 40 / Luminescence at the given time in minutes: 60 / Luminescence at the given time in minutes: 80 / Luminescence at the given time in minutes: 100 / Luminescence at the given time in minutes: 120 / Luminescence at the given time in minutes: 180 / Luminescence at the given time in minutes: 240: cellulose-bound peptide; for Luminescence at the given time in minutes: 0: 0 min; for Luminescence at the given time in minutes: 20: 20 min; for Luminescence at the given time in minutes: 40: 40 min; for Luminescence at the given time in minutes: 60: 60 min; for Luminescence at the given time in minutes: 80: 80 min; for Luminescence at the given time in minutes: 100: 100 min; for Luminescence at the given time in minutes: 120: 120 min; for Luminescence at the given time in minutes: 180: 180 min; for Luminescence at the given time in minutes: 240: 240 min; for Activity Class bound: uncleaved cellulose-bound peptides
Procedure, shortened: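 Peptides remained bound to cellulose spots, which were ethanol-washed and equilibrated in 100 mM Tris pH 7.3. Constitutively lux-expressing P. aeruginosa (OD600 0.35 culture diluted 1:25) added in 10 mM Tris-HCl pH 7.3, 20 mM glucose at 37° C. Luminescence (RLU) followed over 14 time points; peptides binned into six activity classes.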

[2] = test system: Pseudomonas aeruginosa strain H1001; experiment: Assay for the cleaved (free, soluble) peptides from cellulose support, luminescence killing assay; assay type: cell-based; set-up: key: 1: Peptides showing stronger killing than Bac2A at a 4 to 8-fold higher dilution; Peptides showing stronger killing compared to that of Bac2A at a 4-fold higher dilution; 3: Peptides similar to Bac2A; 4: Peptides similar to Bac2A at the highest concentration but demonstrating weaker killing at a 2-fold dilution; 5: Peptides giving very weak or no killing at a 2-fold dilution; 6: Peptides with weak killing activity at the highest concentration; settings: free (cleaved) peptides, killing relative to Bac2A
Procedure, shortened: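 Cellulose-synthesized peptides (amidated C-terminus, two β-alanines) cleaved by ammonia, released from punched spots 30 min at 37 °C, then serially diluted. P. aeruginosa H1001 (constitutive fliC::luxCDABE) overnight culture diluted 1:500 in LB or 100 mM Tris pH 7.3/20 mM glucose. Killing followed as time-dependent luminescence loss at 37 °C.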

IARRIVAVRLRV [Bac026]
Luminescence at the given time in minutes: 0 [1]: 4873 RLU
Luminescence at the given time in minutes: 20 [1]: 6389 RLU
Luminescence at the given time in minutes: 40 [1]: 4439 RLU
Luminescence at the given time in minutes: 60 [1]: 2341 RLU
Luminescence at the given time in minutes: 80 [1]: 1080 RLU
Luminescence at the given time in minutes: 100 [1]: 518 RLU
Luminescence at the given time in minutes: 120 [1]: 302 RLU
Luminescence at the given time in minutes: 180 [1]: 201 RLU
Luminescence at the given time in minutes: 240 [1]: 208 RLU
Activity Class bound [1]: 3 (Peptides similar to Bac2A resulting in lux values of less than 500 after 240 min.)
Activity Class Soluble [2]: 3

RRRVIVAVLARI [Bac046]
Luminescence at the given time in minutes: 0 [1]: 4408 RLU
Luminescence at the given time in minutes: 20 [1]: 5904 RLU
Luminescence at the given time in minutes: 40 [1]: 2345 RLU
Luminescence at the given time in minutes: 60 [1]: 233 RLU
Luminescence at the given time in minutes: 80 [1]: 76 RLU
Luminescence at the given time in minutes: 100 [1]: 70 RLU
Luminescence at the given time in minutes: 120 [1]: 102 RLU
Luminescence at the given time in minutes: 180 [1]: 48 RLU
Luminescence at the given time in minutes: 240 [1]: 53 RLU
Activity Class bound [1]: 3 (Peptides similar to Bac2A resulting in lux values of less than 500 after 240 min.)
Activity Class Soluble [2]: 3

VVIRAAIRRVRL [Bac038]
Luminescence at the given time in minutes: 0 [1]: 5024 RLU
Luminescence at the given time in minutes: 20 [1]: 7158 RLU
Luminescence at the given time in minutes: 40 [1]: 5307 RLU
Luminescence at the given time in minutes: 60 [1]: 4676 RLU
Luminescence at the given time in minutes: 80 [1]: 4112 RLU
Luminescence at the given time in minutes: 100 [1]: 3323 RLU
Luminescence at the given time in minutes: 120 [1]: 2739 RLU
Luminescence at the given time in minutes: 180 [1]: 2466 RLU
Luminescence at the given time in minutes: 240 [1]: 2576 RLU
Activity Class bound [1]: 5 (Peptides reducing luminescence (lux) values to between 1500 to 3000 after 240 min.)
Activity Class Soluble [2]: 5

ARRLIVRVRVIA [Bac003]
Luminescence at the given time in minutes: 0 [1]: 4138 RLU
Luminescence at the given time in minutes: 20 [1]: 5992 RLU
Luminescence at the given time in minutes: 40 [1]: 3320 RLU
Luminescence at the given time in minutes: 60 [1]: 906 RLU
Luminescence at the given time in minutes: 80 [1]: 192 RLU
Luminescence at the given time in minutes: 100 [1]: 74 RLU
Luminescence at the given time in minutes: 120 [1]: 83 RLU
Luminescence at the given time in minutes: 180 [1]: 76 RLU
Luminescence at the given time in minutes: 240 [1]: 36 RLU
Activity Class bound [1]: 3 (Peptides similar to Bac2A resulting in lux values of less than 500 after 240 min.)
Activity Class Soluble [2]: 5

VIALRIAVRRVR [Bac045]
Luminescence at the given time in minutes: 0 [1]: 4873 RLU
Luminescence at the given time in minutes: 20 [1]: 6105 RLU
Luminescence at the given time in minutes: 40 [1]: 2726 RLU
Luminescence at the given time in minutes: 60 [1]: 554 RLU
Luminescence at the given time in minutes: 80 [1]: 83 RLU
Luminescence at the given time in minutes: 100 [1]: 61 RLU
Luminescence at the given time in minutes: 120 [1]: 37 RLU
Luminescence at the given time in minutes: 180 [1]: 57 RLU
Luminescence at the given time in minutes: 240 [1]: 35 RLU
Activity Class bound [1]: 3 (Peptides similar to Bac2A resulting in lux values of less than 500 after 240 min.)
Activity Class Soluble [2]: 3

RRVAIVVIARLR [Bac018]
Luminescence at the given time in minutes: 0 [1]: 4966 RLU
Luminescence at the given time in minutes: 20 [1]: 6080 RLU
Luminescence at the given time in minutes: 40 [1]: 981 RLU
Luminescence at the given time in minutes: 60 [1]: 82 RLU
Luminescence at the given time in minutes: 80 [1]: 44 RLU
Luminescence at the given time in minutes: 100 [1]: 60 RLU
Luminescence at the given time in minutes: 120 [1]: 62 RLU
Luminescence at the given time in minutes: 180 [1]: 50 RLU
Luminescence at the given time in minutes: 240 [1]: 39 RLU
Activity Class bound [1]: 2 (Peptides reducing lux values to between 500 and 1000 after 40 min.)
Activity Class Soluble [2]: 2

VIVRLAARRVRI [Bac028]
Luminescence at the given time in minutes: 0 [1]: 5001 RLU
Luminescence at the given time in minutes: 20 [1]: 6828 RLU
Luminescence at the given time in minutes: 40 [1]: 5315 RLU
Luminescence at the given time in minutes: 60 [1]: 5037 RLU
Luminescence at the given time in minutes: 80 [1]: 4555 RLU
Luminescence at the given time in minutes: 100 [1]: 4143 RLU
Luminescence at the given time in minutes: 120 [1]: 3762 RLU
Luminescence at the given time in minutes: 180 [1]: 3646 RLU
Luminescence at the given time in minutes: 240 [1]: 4268 RLU
Activity Class bound [1]: 6 (Peptides having residual luminescence (lux) values greater than 3000 after 240 min.)
Activity Class Soluble [2]: 5

ARIARRVRILVV [Bac021]
Luminescence at the given time in minutes: 0 [1]: 5470 RLU
Luminescence at the given time in minutes: 20 [1]: 7247 RLU
Luminescence at the given time in minutes: 40 [1]: 4581 RLU
Luminescence at the given time in minutes: 60 [1]: 1967 RLU
Luminescence at the given time in minutes: 80 [1]: 683 RLU
Luminescence at the given time in minutes: 100 [1]: 278 RLU
Luminescence at the given time in minutes: 120 [1]: 196 RLU
Luminescence at the given time in minutes: 180 [1]: 129 RLU
Luminescence at the given time in minutes: 240 [1]: 128 RLU
Activity Class bound [1]: 3 (Peptides similar to Bac2A resulting in lux values of less than 500 after 240 min.)
Activity Class Soluble [2]: 4

RAIRVRRIVLAV [Bac037]
Luminescence at the given time in minutes: 0 [1]: 4908 RLU
Luminescence at the given time in minutes: 20 [1]: 6480 RLU
Luminescence at the given time in minutes: 40 [1]: 4105 RLU
Luminescence at the given time in minutes: 60 [1]: 1624 RLU
Luminescence at the given time in minutes: 80 [1]: 366 RLU
Luminescence at the given time in minutes: 100 [1]: 120 RLU
Luminescence at the given time in minutes: 120 [1]: 54 RLU
Luminescence at the given time in minutes: 180 [1]: 59 RLU
Luminescence at the given time in minutes: 240 [1]: 46 RLU
Activity Class bound [1]: 3 (Peptides similar to Bac2A resulting in lux values of less than 500 after 240 min.)
Activity Class Soluble [2]: 4

VILARRRVRIAV [Bac017]
Luminescence at the given time in minutes: 0 [1]: 4219 RLU
Luminescence at the given time in minutes: 20 [1]: 7259 RLU
Luminescence at the given time in minutes: 40 [1]: 5041 RLU
Luminescence at the given time in minutes: 60 [1]: 3136 RLU
Luminescence at the given time in minutes: 80 [1]: 1907 RLU
Luminescence at the given time in minutes: 100 [1]: 1047 RLU
Luminescence at the given time in minutes: 120 [1]: 578 RLU
Luminescence at the given time in minutes: 180 [1]: 321 RLU
Luminescence at the given time in minutes: 240 [1]: 214 RLU
Activity Class bound [1]: 3 (Peptides similar to Bac2A resulting in lux values of less than 500 after 240 min.)
Activity Class Soluble [2]: 5

RARIVRVRVILA [Bac016]
Luminescence at the given time in minutes: 0 [1]: 4172 RLU
Luminescence at the given time in minutes: 20 [1]: 6362 RLU
Luminescence at the given time in minutes: 40 [1]: 2916 RLU
Luminescence at the given time in minutes: 60 [1]: 678 RLU
Luminescence at the given time in minutes: 80 [1]: 142 RLU
Luminescence at the given time in minutes: 100 [1]: 80 RLU
Luminescence at the given time in minutes: 120 [1]: 60 RLU
Luminescence at the given time in minutes: 180 [1]: 68 RLU
Luminescence at the given time in minutes: 240 [1]: 22 RLU
Activity Class bound [1]: 3 (Peptides similar to Bac2A resulting in lux values of less than 500 after 240 min.)
Activity Class Soluble [2]: 2

RRIARVIVAVLR [Bac002]
Luminescence at the given time in minutes: 0 [1]: 4340 RLU
Luminescence at the given time in minutes: 20 [1]: 6090 RLU
Luminescence at the given time in minutes: 40 [1]: 1631 RLU
Luminescence at the given time in minutes: 60 [1]: 135 RLU
Luminescence at the given time in minutes: 80 [1]: 58 RLU
Luminescence at the given time in minutes: 100 [1]: 48 RLU
Luminescence at the given time in minutes: 120 [1]: 35 RLU
Luminescence at the given time in minutes: 180 [1]: 59 RLU
Luminescence at the given time in minutes: 240 [1]: 48 RLU
Activity Class bound [1]: 3 (Peptides similar to Bac2A resulting in lux values of less than 500 after 240 min.)
Activity Class Soluble [2]: 3

ILVIVRRRARAV [Bac042]
Luminescence at the given time in minutes: 0 [1]: 5171 RLU
Luminescence at the given time in minutes: 20 [1]: 6703 RLU
Luminescence at the given time in minutes: 40 [1]: 4453 RLU
Luminescence at the given time in minutes: 60 [1]: 2128 RLU
Luminescence at the given time in minutes: 80 [1]: 746 RLU
Luminescence at the given time in minutes: 100 [1]: 244 RLU
Luminescence at the given time in minutes: 120 [1]: 86 RLU
Luminescence at the given time in minutes: 180 [1]: 49 RLU
Luminescence at the given time in minutes: 240 [1]: 52 RLU
Activity Class bound [1]: 3 (Peptides similar to Bac2A resulting in lux values of less than 500 after 240 min.)
Activity Class Soluble [2]: 3

LAIVRRARVRIV [Bac031]
Luminescence at the given time in minutes: 0 [1]: 4646 RLU
Luminescence at the given time in minutes: 20 [1]: 7357 RLU
Luminescence at the given time in minutes: 40 [1]: 5808 RLU
Luminescence at the given time in minutes: 60 [1]: 5146 RLU
Luminescence at the given time in minutes: 80 [1]: 4145 RLU
Luminescence at the given time in minutes: 100 [1]: 3815 RLU
Luminescence at the given time in minutes: 120 [1]: 3472 RLU
Luminescence at the given time in minutes: 180 [1]: 3130 RLU
Luminescence at the given time in minutes: 240 [1]: 3247 RLU
Activity Class bound [1]: 6 (Peptides having residual luminescence (lux) values greater than 3000 after 240 min.)
Activity Class Soluble [2]: 5

From patent US20080207522A1, “Antimicrobial Peptides” (priority 2004, published 2008)
